Like-named read-outs stand apart in the source and are kept apart here.
Tests used:
[1] = test system: regeneration of 11-cis-retinal (isomerase); assay: Single dose time course in the in vivo isomerase assay at 0.3 mg/kg (compound A vs compound D); conditions: BALB/c mice, single oral dose 0.3 mg/kg; for inhibition at 0.3 mg/kg: Mus musculus, read-out: Percent Inhibition, 0.3 mg/kg, Avg. % Inhibition
Experimental: (§1) All test compounds were stored at room temperature, dessicated.
On the day prior to dose administration 3-amino-1-(3-((tetrahydro-2H-pyran-4-yl)methoxy)phenyl)propan-1-ol (compound A) and 3-amino-1-(3-((tetrahydro-2H-pyran- 2-yl)methoxy)phenyl)propan-1-ol (compound D) were weighed into new empty glass vials. The compounds were dissolved in di-water at the concentration of 0.068 mg/mL and stored overnight at 4° C.
52 Male BALB/c mice (Charles River Laboratories) were used for this study. The mice were approximately 8 weeks at the initiation of dosing with an average body weight of 23 grams.
The day prior to dose administration 52 BALB/c mice were placed into a dark room and dark adapted for a minimum of 12 hours prior to dose administration. The mice were maintained in the dark for the duration of the study.
Each animal was removed from its cage and dosed accordingly to the study design in Table 10 (see below). Each animal was administered 0.1 mL of the appropriate test article or vehicle orally using a 1 mL syringe fitted with a 23 gauge oral gavage needle. At 2, 4, 6, 8, 16 or 24 hours following dose administration, animals were removed from the dark and exposed to 5000 Lux white light for 10 minutes to photobleach their eyes. Following the completion of the photobleach the animals were returned to the dark for 2 hours to allow for the regeneration of 11-cis-retinal in the eyes. Two hours after photobleaching each animal was euthanized with carbon dioxide followed by cervical dislocation, in the dark under red light. The light control group was euthanized immediately following photobleaching. Immediately following the cervical dislocation both eyes of each animal were removed and transferred into separate tubes, flash frozen in liquid nitrogen and stored in the dark at −80° C. until processing and analysis.
(§2) All sample processing procedures were performed in the dark under red light.
Extracted samples were analyzed using an Agilent 1100 HPLC system according to the procedure outlined in Table 12 (see below)
(§3) HPLC analysis of the eyes measures the peak area units of the 110 cis-Ral-Oxime_syn. Signal.
(§4) Data analysis % inhibition (drug vs. recovery control). % control (drug vs. light control), and One-way ANOVA (followed by Tukey's Multiple Comparison) were performed using peak area units and performed by Prism software. Data are represented as mean and standard deviation.

[2] = test system: isomerase (recovery of 11-cis-retinal after bleaching); assay: In vivo murine isomerase assay (Table 3); conditions: Mus musculus, po, mice
Experimental: The capability of compounds described herein to inhibit isomerase was determined by an in vivo murine isomerase assay. […] The recovery of 11-cis-retinal after bleaching can be used to estimate the activity of isomerase in vivo. Delayed recovery, as represented by lower 11-cis-retinal oxime levels, indicates inhibition of isomerization reaction.
Mice were gavaged with the test compound. […] The mice were allowed to recover 2 hours in the dark. The animals were then sacrificed by carbon dioxide inhalation. Retinoids were extracted from the eye and the regeneration of 11-cis-retinal was assessed at various time intervals.
After the mice were sacrificed, the eyes were immediately removed and placed in liquid nitrogen for storage.
The eyes were placed in 500 μL of bis-tris propane buffer (10 mM, pH˜7.3) and 20 μL of 0.8M hydroxile amine (pH˜7.3). The eyes were cut up into small pieces with small iris scissors and then thoroughly homogenized at 30000 rpm with a mechanical homogenizer (Polytron PT 1300 D) in the tube until no visible tissue remained. 500 μL of methanol and 500 μL of heptane were added to each tube. The tubes were attached to a vortexer so that the contents were mixed thoroughly for 15 minutes in room temperature. The organic phase was separated from the aqueous phase by centrifugation for 10 min at 13K rpm, 4° C. 240 μL of the solution from the top layer (organic phase) was removed and transferred to clean 300 μl glass inserts in HPLC vials using glass pipette and the vials were crimped shut tightly.
The samples were analyzed on an Agilent 1100 HPLC system with normal phase column: SILICA (Beckman Coutlier, dp 5 μm, 4.6 mM×250 mM). […] Loading volume for each sample was 100 μl; detection wavelength was 360 nm. The area under the curve for 11-cis retinal oxime was calculated by Agilent Chemstation software and was recorded manually. Data processing was performed using Prizm software.
Positive control mice (no compound administered) were sacrificed fully dark-adapted and the eye retinoids analyzed. Light (bleached) control mice (no compound administered) were sacrificed and retinoids isolated and analyzed immediately after light treatment.
A time course study was performed to determine the isomerase inhibitory activity of the test compound. […] The animals were then “photo-bleached” (5000 Lux white light for 10 minutes) at 2, 4, 8, 16 and 24 hours after dosing, and returned to darkness to allow recovery of the 11-cis-retinal content of the eyes. Mice were sacrificed 2 hours after bleaching, eyes were enucleated, and retinoid content is analyzed by HPLC.
Recovery control mice (vehicle-only treated) were light-treated and left to recover for 2 hours in the dark before sacrifice and analysis. Light control mice (vehicle only treated) were sacrificed for analysis immediately after photo-bleaching.
An in vivo dose response isomerase inhibition study was performed with test compound. […] Recovery and retinoid analysis were performed as described above. Dark control mice were vehicle-only treated, sacrificed fully dark adapted without light treatment, and analyzed. Recovery control mice and light control mice were included in the study as per the initial phase.

[3] = test system: retinal isomerase activity (regeneration of 11-cis-retinal); assay: Comparative in vivo murine isomerase assay, dose response (compound A vs compound D); parameters: species or system BALB/c mice
Experimental: as §1
On the day prior to dose administration compound A and compound D were weighed into new empty glass vials. The compounds were dissolved in di-water at the concentration of 0.833 mg/mL compound A and 0.892 mg/mL compound D, serially diluted into various concentrations, and stored overnight at 4 OC.
56 Male BALB/c mice (Charles River Laboratories) were used for this study. The mice were approximately 8 weeks at the initiation of dosing with an average body weight of 24 grams.
The day prior to dose administration 56 BALB/c mice were placed into a dark room and dark adapted for a minimum of 12 hours prior to dose administration. The mice were maintained in the dark for the duration of the study.
Each animal was removed from its cage and dosed accordingly to the study design in Table 4 (see below). Each animal was administered 0.1 mL of the appropriate compound or vehicle via oral gavage using a 1 mL syringe fitted with a 23 gauge oral gavage needle. Two hours following dose administration, animals were removed from the dark and exposed to 5000 Lux white light for 10 minutes to photobleach their eyes.
Following the completion of the photobleach the animals were returned to the dark for 2 hours to allow for the regeneration of 11-cis-retinal in the eyes. Two hours after photobleaching each animal was euthanized with carbon dioxide followed by cervical dislocation, in the dark under red light. The light control group was euthanized immediately following photobleaching. Immediately following the cervical dislocation both eyes of each animal were removed and transferred into separate tubes, flash frozen in liquid nitrogen and stored in the dark at −80° C. until processing and analysis.
as §2
Extracted samples were analyzed using an Agilent 1100 HPLC system according to the procedure outlined in Table 6 (see below)
as §3, §4

In the case of `NCC[C@@H](O)c1cccc(OCC2CCOCC2)c1` [Example 1], the “Percent Control, 0.3 mg/kg (average)” value ([1]; Time Point 2 Hours) is reported as 2.0%, the “Percent Control, 0.3 mg/kg (average)” value ([1]; Time Point 4 Hours) is reported as 11.5% and the “Percent Control, 0.3 mg/kg (average)” value ([1]; Time Point 6 Hours) is reported as 43.7%. The “Percent Control, 0.3 mg/kg (average)” value ([1]; Time Point 8 Hours) was 79.8%, the “Percent Control, 0.3 mg/kg (average)” value ([1]; Time Point 16 Hours) was 98.5% and the “Percent Control, 0.3 mg/kg (average)” value ([1]; Time Point 24 Hours) was 95.8%. It also gave an inhibition at 0.3 mg/kg ([1]; Time Point 2 Hours) of 98%, an inhibition at 0.3 mg/kg ([1]; Time Point 4 Hours) of 88.5% and an inhibition at 0.3 mg/kg ([1]; Time Point 6 Hours) of 56.3%. The inhibition at 0.3 mg/kg ([1]; Time Point 8 Hours) was 20.2%, the inhibition at 0.3 mg/kg ([1]; Time Point 16 Hours) was 1.5% and the inhibition at 0.3 mg/kg ([1]; Time Point 24 Hours) was 4.2%. The inhibition at 0.03 mg/kg ([2]; 2 h, Dose 0.03 mg/kg) was -2.7%, the inhibition at 0.1 mg/kg ([2]; 2 h, Dose 0.1 mg/kg) was 3.4% and the inhibition at 0.3 mg/kg ([2]; 2 h) was 58.4%. The inhibition at 0.5 mg/kg ([2]; 2 h, Dose 0.5 mg/kg) was 89.9%, the inhibition at 0.81 mg/kg ([2]; 2 h) was 98.2% and the inhibition at 1 mg/kg ([2]; 2 h) was 96.9%. The inhibition at 3 mg/kg ([2]; 2 h, Dose 3 mg/kg) was 101%, the inhibition at 0.3 mg/kg ([2]; 4 h) was 15.7% and the inhibition at 0.81 mg/kg ([2]; 4 h) was 87.9%. It also gave an inhibition at 1 mg/kg ([2]; 4 h) of 91.1%, an inhibition at 0.81 mg/kg ([2]; 6 h) of 75.8% and an inhibition at 0.3 mg/kg ([2]; 8 h) of 10.4%. It also gave an inhibition at 0.81 mg/kg ([2]; 8 h) of 51.8%, an inhibition at 1 mg/kg ([2]; 8 h) of 62% and an inhibition at 0.3 mg/kg ([2]; 16 h) of -2.7%. It also gave an inhibition at 0.81 mg/kg ([2]; 16 h) of 5.5%, an inhibition at 1 mg/kg ([2]; 16 h) of -1.2% and an inhibition at 0.3 mg/kg ([2]; 24 h) of -4.4%. The inhibition at 0.81 mg/kg ([2]; 24 h) was -4.8%, the inhibition at 1 mg/kg ([2]; 24 h) was 3.8% and the “dose at which 11-cis-retinal recovery was inhibited by 50% (called IC50)” value ([3]; BALB/c mice, single oral dose, 2 h, dose response experiment) was 0.17 mg/kg. It also gave an inhibition at 0.03 mg/kg ([3]; Mus musculus, po, 2 h, BALB/c mice, single oral dose 0.03 mg/kg, bleach 2 h after dose, drug vs. recovery control, read-out: Percent Inhibition at 2 Hours, Avg. % Inhibition) of -44.1%, an inhibition at 0.1 mg/kg ([3]; Mus musculus, po, 2 h, BALB/c mice, single oral dose 0.1 mg/kg, bleach 2 h after dose, drug vs. recovery control, read-out: Percent Inhibition at 2 Hours, Avg. % Inhibition) of -9.8% and an inhibition at 0.3 mg/kg ([3]; Mus musculus, po, 2 h, BALB/c mice, single oral dose 0.3 mg/kg, bleach 2 h after dose, drug vs. recovery control, read-out: Percent Inhibition at 2 Hours, Avg. % Inhibition) of over 90%. It also gave an inhibition at 0.5 mg/kg ([3]; Mus musculus, po, 2 h, BALB/c mice, single oral dose 0.5 mg/kg, bleach 2 h after dose, drug vs. recovery control, read-out: Percent Inhibition at 2 Hours, Avg. % Inhibition) of about 100%, an inhibition at 1 mg/kg ([3]; Mus musculus, po, 2 h, BALB/c mice, single oral dose 1 mg/kg, bleach 2 h after dose, drug vs. recovery control, read-out: Percent Inhibition at 2 Hours, Avg. % Inhibition) of 100% and an inhibition at 3 mg/kg ([3]; Mus musculus, po, 2 h, BALB/c mice, single oral dose 3 mg/kg, bleach 2 h after dose, drug vs. recovery control, read-out: Percent Inhibition at 2 Hours, Avg. % Inhibition) of 105%. The activity at 0.03 mg/kg ([3]; Mus musculus, BALB/c mice, single oral dose 0.03 mg/kg, bleach 2 h after dose, read-out: Percent control at 2 Hours (Avg. % Inhibition)) was 144%, the activity at 0.1 mg/kg ([3]; Mus musculus, BALB/c mice, single oral dose 0.1 mg/kg, bleach 2 h after dose, read-out: Percent control at 2 Hours (Avg. % Inhibition)) was 110% and the activity at 0.3 mg/kg ([3]; Mus musculus, BALB/c mice, single oral dose 0.3 mg/kg, bleach 2 h after dose, read-out: Percent control at 2 Hours (Avg. % Inhibition)) was 7.6%. The activity at 0.5 mg/kg ([3]; Mus musculus, BALB/c mice, single oral dose 0.5 mg/kg, bleach 2 h after dose, read-out: Percent control at 2 Hours (Avg. % Inhibition)) was 0.7%, the activity at 1 mg/kg ([3]; Mus musculus, BALB/c mice, single oral dose 1 mg/kg, bleach 2 h after dose, read-out: Percent control at 2 Hours (Avg. % Inhibition)) was -0.4% and the activity at 3 mg/kg ([3]; Mus musculus, BALB/c mice, single oral dose 3 mg/kg, bleach 2 h after dose, read-out: Percent control at 2 Hours (Avg. % Inhibition)) was -5.2%. For the same compound, the “dose showing nearly 100% inhibition” value ([3]; dose response experiment, 2 h) was 0.5 mg/kg, the “times more active than compound D, by dose for nearly 100% inhibition” value ([3]; dose response experiment, 2 h) was “approximately 6 ×” and the “times more active than compound D, by inhibition at a dose of 0.3 mg/kg” value ([3]; dose response experiment, 2 h) was “greater than 10 ×”.
